# Assay results from patent US8192719B2, “Methods and kits to diagnose growth hormone deficiency by oral administration of EP 1572 or EP 1573 compounds” (Aeterna Zentaris GmbH, priority 2006, dated 2012).
# Read-outs that look alike come from different tables or passages of the source.
# Assay: pharmacokinetic profile of EP 1572 after oral administration in healthy male subjects
# Assay type: in vivo
# Conditions: human, plasma EP 1572, oral, mean ± SEM; for AUC(0-t): read-out: AUC (0-300) (converted)
# Protocol: After a provocative test with EP 1572, the pharmacokinetic profile of EP 1572 and the level of GH released in response to its oral administration were established in 36 healthy male subjects at various doses.
# From the subject a blood sample was drawn at 30 and 15 minutes before the administration of EP 1572. A sample of blood was taken from the subject immediately before the aqueous formulation containing 0.5 mg/kg of EP 1572 was orally administered to the subject. Further blood samples were taken from the subject at 15, 30, 60, 90, 120, 150, 180, 210, 240, 270 and 300 minutes from administration and a portion of each sample processed according to the assay protocol outlined below. The level of GH present in each sample was determined by the assay method outlined below and the peak concentration (Cmax) for the subject determined. The remainder of the sample was used to determine the level of EP 1572 present in the systemic circulation (as outlined below).
# The organic components in human plasma were extracted using a total of […] of an ethyl acetate/iso-propanol mixture (82.5% and 17.5%, respectively). […] Quantification was performed with EP 1573 as an internal standard (peak area ratio evaluation).
# Further dosing studies were carried out wherein the subjects were administered doses of 0.005, 0.05, 0.25 and 0.125 mg/kg each, using the formulations described above.
smiles,measurement,setting,value
"CC(C)(N)C(=O)N[C@H](Cc1c[nH]c2ccccc12)C(=O)N[C@H](Cc1c[nH]c2ccccc12)NC=O [EP 1572, H-Aib-D-Trp-D-gTrp-CHO]",Cmax,0.05 mg/kg,0.86 ± 0.24 ng/mL
same,Tmax,0.05 mg/kg,75 min
same,AUC(0-t),0.05 mg/kg,1.74 ng·h/mL
same,Cmax,0.125 mg/kg,2.33 ± 0.39 ng/mL
same,Tmax,0.125 mg/kg,62.5 min
same,AUC(0-t),0.125 mg/kg,5.35 ng·h/mL
same,Cmax,0.25 mg/kg,3.92 ± 0.57 ng/mL
same,Tmax,0.25 mg/kg,55 min
same,AUC(0-t),0.25 mg/kg,8.67 ng·h/mL
same,Cmax,0.5 mg/kg,7.59 ± 0.83 ng/mL
same,Tmax,0.5 mg/kg,50 min
same,AUC(0-t),0.5 mg/kg,16.1 ng·h/mL
